Experiments:
[1] = molecular target: T1, Trap-1 (Homo sapiens, UniProt Q12931); assay: biochemical
T1 sequence (Q12931 60-704): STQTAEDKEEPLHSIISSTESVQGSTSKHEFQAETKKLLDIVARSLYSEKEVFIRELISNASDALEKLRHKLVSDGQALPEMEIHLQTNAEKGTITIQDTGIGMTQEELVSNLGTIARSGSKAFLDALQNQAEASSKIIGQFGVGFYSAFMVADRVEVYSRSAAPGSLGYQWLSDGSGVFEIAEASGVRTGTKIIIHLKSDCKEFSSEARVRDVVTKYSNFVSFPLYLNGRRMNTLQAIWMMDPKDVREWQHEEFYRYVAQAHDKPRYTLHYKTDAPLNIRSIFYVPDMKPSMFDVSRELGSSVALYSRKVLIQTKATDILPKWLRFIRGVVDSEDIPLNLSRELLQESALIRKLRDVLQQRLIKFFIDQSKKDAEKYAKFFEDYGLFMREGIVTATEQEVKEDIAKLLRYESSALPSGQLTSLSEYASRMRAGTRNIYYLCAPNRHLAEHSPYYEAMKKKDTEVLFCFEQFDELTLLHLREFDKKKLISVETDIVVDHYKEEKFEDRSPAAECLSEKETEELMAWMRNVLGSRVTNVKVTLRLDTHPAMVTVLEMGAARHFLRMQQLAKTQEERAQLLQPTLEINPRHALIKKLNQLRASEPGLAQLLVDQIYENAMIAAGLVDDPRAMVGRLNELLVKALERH

[2] = molecular target: Hsp90α (Homo sapiens, UniProt P07900); assay: biochemical; details: FP competition, 6 nM Cy3B-GM, 10 nM protein, 4° C. for 24 h
[3] = molecular target: Grp94 (Canis lupus familiaris, UniProt P41148); details: read-out: Grp94; FP competition, 6 nM Cy3B-GM, 10 nM protein, 4° C. for 24 h
[4] = molecular target: Hsp90β (Homo sapiens, UniProt P08238)
Sequence of Hsp90β (P08238 whole entry): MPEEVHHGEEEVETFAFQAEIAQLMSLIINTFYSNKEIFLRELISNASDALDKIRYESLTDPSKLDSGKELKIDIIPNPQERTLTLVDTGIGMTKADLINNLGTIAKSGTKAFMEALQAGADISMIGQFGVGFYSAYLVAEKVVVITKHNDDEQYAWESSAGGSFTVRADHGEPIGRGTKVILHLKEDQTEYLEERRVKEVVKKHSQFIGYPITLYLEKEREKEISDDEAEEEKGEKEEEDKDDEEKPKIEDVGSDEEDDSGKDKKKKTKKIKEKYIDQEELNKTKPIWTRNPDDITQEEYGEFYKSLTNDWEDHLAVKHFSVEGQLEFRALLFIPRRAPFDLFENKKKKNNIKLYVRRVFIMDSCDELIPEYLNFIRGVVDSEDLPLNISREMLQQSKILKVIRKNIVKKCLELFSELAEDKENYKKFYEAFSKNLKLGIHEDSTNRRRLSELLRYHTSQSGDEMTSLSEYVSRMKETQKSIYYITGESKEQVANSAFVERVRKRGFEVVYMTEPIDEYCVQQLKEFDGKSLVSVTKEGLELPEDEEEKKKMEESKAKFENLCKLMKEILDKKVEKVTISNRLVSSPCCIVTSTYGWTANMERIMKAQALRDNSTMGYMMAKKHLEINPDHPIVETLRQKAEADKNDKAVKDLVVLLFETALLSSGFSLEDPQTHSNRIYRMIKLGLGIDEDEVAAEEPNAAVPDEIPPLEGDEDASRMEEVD

Sequence of Grp94 (P41148 with tags, fused parts or gaps DELINS287-327GGGG): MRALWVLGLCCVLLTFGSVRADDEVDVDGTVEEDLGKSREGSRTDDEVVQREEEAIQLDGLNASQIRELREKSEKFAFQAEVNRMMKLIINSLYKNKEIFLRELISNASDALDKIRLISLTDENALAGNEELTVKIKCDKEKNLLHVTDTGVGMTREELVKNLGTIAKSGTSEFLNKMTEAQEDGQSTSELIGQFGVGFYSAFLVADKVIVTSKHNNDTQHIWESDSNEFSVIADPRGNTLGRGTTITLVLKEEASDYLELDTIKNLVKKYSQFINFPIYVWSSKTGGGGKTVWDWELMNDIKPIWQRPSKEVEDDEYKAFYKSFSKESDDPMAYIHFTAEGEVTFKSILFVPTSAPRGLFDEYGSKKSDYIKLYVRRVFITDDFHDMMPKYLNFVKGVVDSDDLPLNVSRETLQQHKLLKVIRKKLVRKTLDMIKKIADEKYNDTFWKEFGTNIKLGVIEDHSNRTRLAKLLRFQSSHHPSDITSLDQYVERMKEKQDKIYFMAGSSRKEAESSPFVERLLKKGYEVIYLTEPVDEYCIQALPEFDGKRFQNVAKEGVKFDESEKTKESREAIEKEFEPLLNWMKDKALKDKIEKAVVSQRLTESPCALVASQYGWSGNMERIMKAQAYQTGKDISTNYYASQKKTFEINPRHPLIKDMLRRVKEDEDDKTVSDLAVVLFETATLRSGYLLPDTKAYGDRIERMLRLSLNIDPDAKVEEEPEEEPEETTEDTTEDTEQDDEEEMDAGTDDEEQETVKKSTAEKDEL

| SMILES | IC50 [1] | IC50 [2] | IC50 [3] | IC50 [4] |
| --- | --- | --- | --- | --- |
| CC(C)(CO)NCCn1c(Sc2ccc(Cl)cc2Cl)nc2c(N)ncnc21 [HJP-V-84, 2-((2-(6-Amino-8-((2,4-dichlorophenyl)thio)-9H-purin-9-yl)ethyl)amino)-2-methylpropan-1-ol] | 4.4 µM | 28.9 µM | 1.9 µM |  |
| CC(C)(O)CNCCn1c(Sc2ccc(Cl)cc2Cl)nc2c(N)ncnc21 [HJP-V-85, 1-((2-(6-Amino-8-((2,4-dichlorophenyl)thio)-9H-purin-9-yl)ethyl)amino)-2-methylpropan-2-ol] | 2.6 µM | 9.2 µM | 2.3 µM |  |
| N#CCCCn1c(Sc2cc(Cl)cc(Cl)c2)nc2c(N)ncnc21 [PDP-93A, 4-(6-Amino-8-((3,5-dichlorophenyl)thio)-9H-purin-9-yl)butanenitrile] | 4.47 ± 0.31 µM | > 50 µM | 0.45 ± 0.03 µM | > 100 µM |
| N#CCCCn1cnc(N)c2nc(Sc3cc(Cl)cc(Cl)c3)nc1-2 [PDP-93B, 4-(6-Amino-8-((3,5-dichlorophenyl)thio)-3H-purin-3-yl)butanenitrile] | > 100 µM | > 100 µM | > 100 µM | > 100 µM |
| CC(Br)CCCn1c(Sc2cc(Cl)cc(Cl)c2)nc2c(N)ncnc21 (stereo not shown) [PDP-99A, 9-(4-Bromopentyl)-8-((3,5-dichlorophenyl)thio)-9H-purin-6-amine] | > 100 µM | > 100 µM | 1.52 ± 0.03 µM | > 100 µM |
| CC(Br)CCCn1cnc(N)c2nc(Sc3cc(Cl)cc(Cl)c3)nc1-2 (stereo not shown) [PDP-99B, 3-(4-Bromopentyl)-8-((3,5-dichlorophenyl)thio)-3H-purin-6-amine] | > 100 µM | > 100 µM | > 10 µM |  |
| Nc1ncn(CCCCCC(F)(F)F)c2nc(Sc3cc(Cl)cc(Cl)c3)nc1-2 [PDP-101A, 8-((3,5-Dichlorophenyl)thio)-3-(6,6,6-trifluorohexyl)-3H-purin-6-amine] | > 100 µM | > 100 µM | > 100 µM | > 100 µM |
| Nc1ncnc2c1nc(Sc1cc(Cl)cc(Cl)c1)n2CCCCCC(F)(F)F [PDP-101B, 8-((3,5-Dichlorophenyl)thio)-9-(6,6,6-trifluorohexyl)-9H-purin-6-amine] | > 100 µM | > 100 µM | 1.65 ± 0.31 µM | > 100 µM |
| CC#CCn1c(Sc2cc(Cl)cc(Cl)c2)nc2c(N)ncnc21 [PDP-102A, 9-(But-2-yn-1-yl)-8-((3,5-dichlorophenyl)thio)-9H-purin-6-amine] | > 50 µM | > 100 µM | > 5 µM | > 100 µM |
| CC#CCn1cnc(N)c2nc(Sc3cc(Cl)cc(Cl)c3)nc1-2 [PDP-102B, 3-(But-2-yn-1-yl)-8-((3,5-dichlorophenyl)thio)-3H-purin-6-amine] | > 25 µM | > 100 µM | 10.3 ± 0.82 µM | > 100 µM |
| Nc1ncnc2c1nc(Sc1cc(Cl)cc(Cl)c1)n2Cc1ccccc1 [PDP-107A, 9-Benzyl-8-((3,5-dichlorophenyl)thio)-9H-purin-6-amine] | > 50 µM | > 100 µM | > 5 µM |  |
| Nc1ncnc2c1nc(Sc1cc(Cl)cc(Cl)c1)n2CCCC(F)(F)F [PDP-I-15-N9, 8-((3,5-Dichlorophenyl)thio)-9-(4,4,4-trifluorobutyl)-9H-purin-6-amine] | > 50 µM |  | 0.46 ± 0.04 µM |  |
| C#CCCCn1c(Sc2cc(Cl)cc(Br)c2)nc2c(N)ncnc21 [PDP-I-53-N9] | > 100 µM |  | 0.22 ± 0.02 µM |  |
| C#CCCCn1c(Sc2ccc(Br)cc2Cl)nc2c(N)ncnc21 [PDP-I-61-N9] | 2.62 ± 0.28 µM |  | 0.28 ± 0.06 µM | > 50 µM |
| C#CCCCn1c(Sc2ccc(Cl)c3ccccc23)nc2c(N)ncnc21 [PDP-I-77-N9] |  | > 50 µM | > 2 µM |  |
| C#CCCCn1cnc(N)c2nc(Sc3cc(Cl)cc4c(Cl)ccnc34)nc1-2 [PDP-I-79-N3] |  | > 50 µM | > 5 µM |  |
| CCCCn1c(Cc2ccc(OC)cc2)nc2c(N)ncnc21 [PU1] |  | 110 ± 20 µM | 3.2 ± 0.4 µM | 92 ± 2 µM |
| C#CCCCn1c(Sc2ccc(OC)cc2)nc2c(N)ncnc21 [PU-H1] |  | > 100 µM | 1.13 ± 0.2 µM | > 100 µM |
| C#CCCCn1c(Sc2cc(Cl)ccc2C(F)(F)F)nc2c(N)ncnc21 [PU-H2] |  |  | 0.5 ± 0.2 µM | 6.5 ± 2.3 µM |
| C#CCCCn1c(Sc2ccccc2OC)nc2c(N)ncnc21 [PU-H5] |  |  | 6.2 ± 2.5 µM | 110 ± 120 µM |
| C#CCCCn1c(Sc2ccccc2Cl)nc2c(N)ncnc21 [PU-H6] |  | > 100 µM | 0.35 ± 0.05 µM | > 100 µM |
| C#CCCCn1c(Sc2ccc(Cl)cc2)nc2c(N)ncnc21 [PU-H7] |  | > 100 µM | 1.5 ± 0.2 µM |  |
| C#CCCCn1c(Sc2ccc(OC)cc2OC)nc2c(N)ncnc21 [PU-H8] |  | 47.4 ± 2.2 µM | 34.5 ± 3.5 µM | 22.4 ± 2.8 µM |

| SMILES | IC50 [1] | IC50 [2] | IC50 [3] | IC50 [4] |
| --- | --- | --- | --- | --- |
| C#CCCCn1c(Sc2ccccc2OC(F)(F)F)nc2c(N)ncnc21 [PU-H9] |  | > 100 µM | 1.4 ± 0.2 µM | > 100 µM |
| C#CCCCn1cnc(N)c2nc(Sc3cc(C)ccc3C)nc1-2 [PU-H29] |  | > 100 µM | 185 ± 15 µM | > 100 µM |
| C#CCCCn1c(Sc2ccccc2CO)nc2c(N)ncnc21 [PU-H34] |  | > 100 µM | 29 ± 9 µM | > 100 µM |
| C#CCCCn1cnc(N)c2nc(Sc3ccccc3CO)nc1-2 [PU-H35] |  | > 100 µM | > 100 µM | > 100 µM |
| C#CCCCn1c(Sc2c(C)cc(C)cc2C)nc2c(N)ncnc21 [PU-H36] |  | > 250 µM | 2.1 ± 0.56 µM | > 250 µM |
| C#CCCCn1cnc(N)c2nc(Sc3c(C)cc(C)cc3C)nc1-2 [PU-H37] |  | > 100 µM | 20 ± 5 µM | > 100 µM |
| C#CCCCn1cnc(N)c2nc(Sc3ccc(Cl)cc3Cl)nc1-2 [PU-H38] |  | > 500 µM | 2.37 ± 0.79 µM | > 500 µM |
| C#CCCCn1cnc(N)c2nc(Sc3cc(Cl)ccc3Cl)nc1-2 [PU-H43] |  | > 100 µM | 35.3 ± 5 µM | > 100 µM |
| C#CCCCn1cnc(N)c2nc(Sc3cc(C)cc(C)c3)nc1-2 [PU-H45] |  | > 100 µM | > 100 µM | > 100 µM |
| C#CCCCn1cnc(N)c2nc(Sc3ccccc3OC)nc1-2 [PU-H46] |  | > 100 µM | > 100 µM | > 100 µM |
| C#CCCCn1cnc(N)c2nc(Sc3ccccc3Cl)nc1-2 [PU-H47] |  | > 100 µM |  | > 100 µM |
| C#CCCCn1cnc(N)c2nc(Sc3ccccc3OC(F)(F)F)nc1-2 [PU-H48] |  | > 100 µM | 106 µM | > 100 µM |
| C#CCCCn1cnc(N)c2nc(Sc3cc(Cl)c(Cl)cc3Cl)nc1-2 [PU-H52] |  | > 100 µM | 2.08 ± 1.49 µM | > 100 µM |
| C#CCCCn1cnc(N)c2nc(Sc3cc(Cl)ccc3C(F)(F)F)nc1-2 [PU-H53] |  | > 100 µM | 200 µM | > 100 µM |
| C#CCCCn1cnc(N)c2nc(Sc3cc(Br)ccc3OC)nc1-2 [PU-H63] |  | 5.9 ± 0.5 µM | 2.3 ± 0.1 µM | 2.5 ± 0.2 µM |
| CN1CCN(CCn2c(Sc3cc(Cl)cc(Cl)c3)nc3c(N)ncnc32)CC1 [SO-III-39A, 8-((3,5-dichlorophenyl)thio)-9-(2-(4-methylpiperazin-1-yl)ethyl)-9H-purin-6-amine] |  | 52.2 µM | 0.373 µM |  |
| COC(C)CNCCn1c(Sc2cc(Cl)cc(Cl)c2)nc2c(N)ncnc21 (stereo not shown) [SO-III-75A, 8-((3,5-dichlorophenyl)thio)-9-(2-((2-methoxypropyl)amino)ethyl)-9H-purin-6-amine] |  | 39.9 µM | 0.89 µM |  |
| Nc1ncnc2c1nc(Sc1cc(Cl)cc(Cl)c1)n2CCCn1ccnc1 [SO-III-103A, 9-(3-(1H-imidazol-1-yl)propyl)-8-((3,5-dichlorophenyl)thio)-9H-purin-6-amine] |  | > 10 µM | 0.203 µM |  |
| CC(C)NCCCn1c(Sc2cc(Cl)cc(Cl)c2)nc2c(N)nccc21 [SO-III-154, 2-((3,5-dichlorophenyl)thio)-1-(3-(isopropylamino)propyl)-1H-imidazo[4,5-c]pyridin-4-amine] |  | > 50 µM | 2.59 µM |  |
| CC(C)NCCCn1c(Sc2cccc3ccccc23)nc2c(N)nccc21 [SO-IV-03, 1-(3-(isopropylamino)propyl)-2-(naphthalen-1-ylthio)-1H-imidazo[4,5-c]pyridin-4-amine] |  | > 50 µM | > 5 µM |  |
| Cc1ccc(Sc2nc3c(N)ncn(CCCNC(C)C)c-3n2)c(C)c1 [WS-11, 8-((2,4-Dimethylphenyl)thio)-3-(3-(isopropylamino)propyl)-3H-purin-6-amine] |  | > 100 µM | 25 µM |  |
| CC(C)NCCCn1c(Sc2cc(C(F)(F)F)cc(C(F)(F)F)c2)nc2c(N)ncnc21 [WS-14, 8-((3,5-Bis(trifluoromethyl)phenyl)thio)-9-(3-(isopropylamino)propyl)-9H-purin-6-amine] |  | 8.56 µM | 2.43 µM |  |

From patent US12600725B2 (Memorial Sloan-Kettering Cancer Center, priority 2013, dated 2026)
